Assay results published in patent US4365989A, “2-Thiocyanomethylthio-4,4-dialkyl-5-substituted-thiazoline fungicides” (Chevron Research Company, priority 1982, dated 1982).

How the values were obtained:
[1] = system: Septoria apii; format: in vivo; settings: 250 ppm; celery (Utah) plants
[2] = system: Alternaria solani conidia; experiment: Tomato Early Blight control; format: in vivo; settings: 250 ppm; tomato Bonny Best seedlings
Description: Compounds of the invention were tested for the control of the tomato Early Blight organism, Alternaria solani conidia. Tomato (variety Bonny Best) seedlings of 6 to 7 weeks old were used. The tomato plants were sprayed with a 250 ppm solution of the test compound in an acetone-and-water solution containing a small amount of a nonionic emulsifier. The sprayed plants were inoculated one day later with the organism, placed in the environmental chamber and incubated at 66° to 68° F. and 100% relative humidity for 24 hours. Following the incubation, the plants were maintained in a greenhouse for about 12 days. Percent diseases control was based on the percent disease development on untreated check plants.

[3] = system: Rhizoctonia solani; experiment: Mycelial inhibition, Rhizoctonia; format: cell-based; settings: 24 hours, relative to standard DIFOLATAN, read-out: Mycelial inhibition, % Standard, Rhizoc.
Description: (§1) A number of the compounds of the present invention were evaluated for in-vitro fungicidal effectiveness by means of a mycelial inhibition test. This test is designed to measure the fungitoxic activity of fungicidal chemicals in terms of their degree of inhibition of mycelium growth. Each compound to be tested was dissolved in acetone to 500 ppm concentration. Paper strips were infused with the particular mycelium growth by covering the paper with a potato dextrose broth culture of mycelial suspension. The papers were then placed on potato dextrose agar plates and sprayed by means of a microsprayer with the fungicidal solution. The treated paper strips were incubated at 25° C. and the data is taken after 24 hours. Fungicidal activities are measured by a zone of inhibited mycelial growth from the center of the paper strip. The effectiveness of the compounds tested for fungicidal activity is reported in Table IIa for those compounds which were effective in inhibiting mycelial growth. The activity is reported in terms of [formula]

[4] = system: Aspergillus Niger; experiment: Mycelial inhibition, Aspergillus; format: cell-based; settings: 24 hours, relative to standard DIFOLATAN, read-out: Mycelial inhibition, % Standard, Asper.
Description: as §1

[5] = system: Mustard (Brassica arvensis); experiment: Pre-emergent herbicidal test, Mustard; format: in vivo; settings: 504 h, pre-emergence, 33 micrograms/cm^2, 3 weeks
Description: (§2) An acetone solution of the test compound was prepared by mixing 750 mg of the compound, 220 mg of a nonionic surfactant and 25 ml of acetone. This solution was added to approximately 125 ml of water containing 156 mg of surfactant.
(§3) Seeds of the test vegetation were planted in a pot of […] and the test solution was sprayed uniformly onto the soil surface at a dose of 33 micrograms/cm^2. The pot was watered and placed in a greenhouse. […] At the end of this period, the herbicidal effectiveness of the compound was rated based on the physiological observations. A 0-to-100 scale was used, 0 representing no phytotoxicity, 100 representing complete kill.

[6] = system: Pigweed (Amaranthus retraflexus); experiment: Pre-emergent herbicidal test, Pigweed; format: in vivo; settings: 504 h, pre-emergence, 33 micrograms/cm^2, 3 weeks
Description: as §2, §3

[7] = system: Pigweed (Amaranthus retraflexus); experiment: Post-emergent herbicidal test, Pigweed; format: in vivo; settings: 504 h, post-emergence, 33 micrograms/cm^2, 3 weeks
[8] = system: Watergrass (Ethinochloa crusgalli); experiment: Pre-emergent herbicidal test, Watergrass; format: in vivo; settings: 504 h; pre-emergence; 33 micrograms/cm^2; 3 weeks
Description: as §2, §3

[9] = system: Piricularia oryzae; format: in vivo; settings: 625 ppm; rice seedlings Calrose M-9
[10] = system: Pythium Ultimum; experiment: Mycelial inhibition, Pythium; format: cell-based; settings: Globisporangium ultimum, 24 hours, relative to standard DIFOLATAN
Description: as §1

SMILES	% Control Cel. L. Bl. [1]	% Control Tom. E. Bl. [2]	inhibition at 500 ppm [3]	inhibition at 500 ppm [4]	pest or weed control at 33 µg/cm2 [5]	pest or weed control at 33 µg/cm2 [6]	pest or weed control at 33 µg/cm2 [7]	pest or weed control at 33 µg/cm2 [8]	% Control Rice Blast [9]	inhibition at 500 ppm [10]
CC1(C)N=C(SCSC#N)SC1=CSc1ccc(Cl)cc1 [Compound 1, 2-thiocyanomethylthio-4,4-dimethyl-5-(4-chlorophenylthio)methylenethiazoline]	70%	47%	0%	0%	0%	0%	0%	0%	–	–
CC1(C)N=C(SCSC#N)SC1=C(Cl)Cl [Compound 2, 2-thiocyanomethylthio-4,4-dimethyl-5-dichloromethylenethiazoline]	35%	67%	71%	107%	0%	0%	55%	0%	–	–
CCC1(CC)N=C(SCSC#N)SC1=CBr [Compound 5, 2-thiocyanomethylthio-4,4-diethyl-5-bromo-methylenethiazoline]	96%	0%	82%	50%	0%	0%	35%	0%	90%	0%
C=C1SC(SCSC#N)=NC1(CC)CC [Compound 6, 2-thiocyanomethylthio-4,4-diethyl-5-methylenethiazoline]	0%	0%	89%	77%	58%	73%	35%	0%	–	31%
C=C1SC(SCSC#N)=NC1(C)C [Compound 7, 2-Thiocyanomethylthio-4,4-dimethyl-5-methylenethiazoline]	–	71%	39%	32%	0%	50%	35%	0%	–	55%
C=C1SC(SCSC#N)=NC12CCCCC2 [Compound 8]	–	0%	71%	77%	0%	0%	50%	0%	–	0%
